# Biological target: T1, Human recombinant cathepsin S (Homo sapiens, UniProt P25774)
# T1 construct: made in house; host or cells: Sf9 insect cells (baculovirus, pFastBac1)
# Assay: Inhibition of Cathepsin S
# Type: biochemical
# Conditions: 10 nM enzyme, pH 6.5, 37° C., fluorescence 360/460 nm
# Protocol: U937 RNA was subjected to reverse transcriptase/polymerase chain reaction with primer A (5′[sequence] 3′) and primer B (5′[sequence] 3′) designed to specifically amplify the cathepsin S cDNA. The resulting 900 bp DNA fragment was subcloned into pGEM-T (Promega) and sequenced to confirm its identity. This construct was used for all subsequent manipulations.
# The ligation mixture was used to transform DH5a competent cells (GibcoBRL) and plated on LB plates containing 100 ug/ml ampicillin. Colonies were grown in overnight cultures of LB media containing 50 ug/ml Ampicillin, plasmid DNA isolated and correct insert confirmed by restriction enzyme digestion. Recombinant pFastBac donor plasmid was transformed into DH10Bac competent cells (GibcoBRL). Large white colonies were picked from LB plates containing 50 ug/ml kanamycin, 7 ug/ml gentamicin, 10 ug/ml tetracycline, 100 ug/ml Bluo-gal, and 40 ug/ml IPTG. DNA was isolated and used to transfect Sf9 insect cells using CellFECTIN reagent (GibcoBRL). Cells and supernatant were harvested after 72 hours. Viral supernatant was passaged twice and presence of Cat S confirmed by PCR of the supernatant. […]
# Human recombinant cathepsin S expressed in Baculovirus is used at a final concentration of 10 nM in buffer. […] Compound activity is measured by diminished fluorescence compared to DMSO control when read at 360 nm excitation and 460 nm emission.
# T1 sequence (P25774 115-331): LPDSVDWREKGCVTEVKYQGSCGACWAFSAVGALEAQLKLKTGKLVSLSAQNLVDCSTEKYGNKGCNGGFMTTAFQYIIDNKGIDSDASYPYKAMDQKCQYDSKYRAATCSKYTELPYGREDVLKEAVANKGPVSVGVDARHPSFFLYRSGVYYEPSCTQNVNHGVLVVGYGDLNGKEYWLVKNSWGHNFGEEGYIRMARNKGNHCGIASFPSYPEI
smiles,measurement,value
"CCC(C)(C)CC[C@@H](NC(=O)N1CCOCC1)C(=O)NC1(C#N)CCN(C)CC1 [Morpholine-4-carboxylic acid [(R)-1-(4-cyano-1-methyl-piperidine-4-ylcarbamoyl)-4,4-dimethyl-hexyl]-amide]",IC50,> 100 nM

# From patent publication US7465745B2, “Cathepsin S inhibitors” (Boehringer Ingelheim Pharmaceuticals, Inc., priority 2003, dated 2008)
